We go through two compounds from ChEMBL document CHEMBL4819077, “Design, synthesis, and biological evaluation of diosgenin-indole derivatives as dual-functional agents for the treatment of Alzheimer's disease” (Eur J Med Chem, 2021).

Calls of active or inactive are those of the source. The calls are words filed in the database; no cut-off is given here.

The subject of data set [1] is SH-SY5Y. Nature of the data set: Neuroprotection against H202-induced human SH-SY5Y cell damage assessed as decrease in ROS accumulation at 50 uM incubated for 2 hr before H202 challenge and measured after 24 hrs by DCFDA staining based fluorescence microscopy. In kind it is functional. The note with it: time 26.0 hrs.
Data set [2] has as its system Mus musculus. Nature of the data set: Improvement in learning and spatial memory in icv infused amyloid beta (1 to 42)-induced ICR mouse model of Alzheimer's disease assessed as improved target quadrant exploration time at 4 to 20 mg/kg, po administered daily for 7 days starting from 7 days post surgery by Morris water maze test. In kind it is functional, organism-based. The note with it: dose 4-20 mg/kg, time 7.0 day.

The test system of data set [3] is SH-SY5Y. Nature of the data set: Neuroprotection against 6-OHDA-induced cytotoxicity in human SH-SY5Y cells assessed as increase in cell viability upto 50 uM incubated for 2 hr before 6-OHDA challenge and measured after 24 hrs by MTT assay. Type of data set: functional, cell-based. As to conditions: dose microM <=50, time 2.0 hrs.
Data set [4] deals with Mus musculus. Nature of the data set: Neuroprotection against icv infused amyloid beta (1 to 42)-induced ICR mouse model of Alzheimer's disease assessed as rescue of decrease neuronal cells in hippocampal at to 4 to 20 mg/kg, po administered daily for 7 days by HE staining. The note with it: dose 4-20 mg/kg, time 7.0 day. In kind it is functional, organism-based.
Data set [5] has as its system SH-SY5Y. Nature of the data set: Neuroprotection against 6-OHDA-induced oxidative stress in human SH-SY5Y cells assessed as cell protection at 10 uM preincubated for 2 hr before 6-OHDA challenge and measured after 24 hrs by MTT assay. As to conditions: time 26 hrs. In kind it is functional.
Data set [6] has as its system SH-SY5Y. Nature of the data set: Neuroprotection against Abeta-induced cytotoxicity in human SH-SY5Y cells assessed as increase in cell viability upto 50 uM incubated for 2 hr before Abeta(1-42) challenge and measured after 24 hrs by MTT assay. In kind it is functional, cell-based. As to conditions: dose microM <=50, time 2.0 hrs.
Data set [7] is described as follows: Acute toxicity in ICR mouse assessed as abnormalities in kidney at 500 mg/kg, po administered […] 14 days by HE staining based assay. In kind it is organism-based. The note with it: in vivo, 336 h, time 14 day.
Data set [8] in a line: Acute toxicity in ICR mouse assessed as mortality at 500 mg/kg, po administered as single dose measured after 14 days. Type of data set: organism-based. The note with it: in vivo, 336 h, time 14 day.
A short description of data set [9]: Acute toxicity in ICR mouse assessed as abnormalities in heart at 500 mg/kg, po administered […] 14 days by HE staining based assay. In kind it is organism-based. As to conditions: in vivo, 336 h, time 14 day.
In data set [10] the test system is Mus musculus. Nature of the data set: Neuroprotection against icv infused amyloid beta (1 to 42)-induced ICR mouse model of Alzheimer's disease assessed as rescue of pyknotic nucleus in hippocampal at to 4 to 20 mg/kg, po administered daily for 7 days by HE staining. In kind it is functional, organism-based. As to conditions: dose 4-20 mg/kg, time 7.0 day.
Data set [11] has as its system SH-SY5Y. Nature of the data set: Neuroprotection against H202-induced oxidative stress in human SH-SY5Y cells assessed as cell protection at 10 uM preincubated for 2 hr before H202 challenge and measured after 24 hrs by MTT assay. In kind it is functional.
Data set [12] in a line: Acute toxicity in ICR mouse assessed as abnormalities in liver at 500 mg/kg, po administered […] 14 days by HE staining based assay. Type of data set: organism-based. The note with it: in vivo, 336 h, time 14 day.
A short description of data set [13]: Acute toxicity in ICR mouse assessed as abnormal behaviors at 500 mg/kg, po administered as single dose measured after 14 days. The note with it: in vivo, 336 h, time 14 day. In kind it is organism-based.
The nature of data set [14]: Acute toxicity in ICR mouse assessed as body weight loss at 500 mg/kg, po administered as single dose measured after 14 days. As to conditions: in vivo, 336 h, time 14 day. Type of data set: organism-based.
For data set [15], the system named is SH-SY5Y. Nature of the data set: Neuroprotection against H202-induced human SH-SY5Y cell damage assessed as decrease in ROS accumulation at 10 uM incubated for 2 hr before H202 challenge and measured after 24 hrs by DCFDA staining based fluorescence microscopy. Type of data set: functional. The note with it: time 26.0 hrs.
Data set [16] relates to SH-SY5Y. Nature of the data set: Cytotoxicity against human SH-SY5Y cells assessed as reduction in cell viability measured after 24 hrs by MTT assay. Type of data set: cell-based.
Data set [17] can be described thus: Acute toxicity in ICR mouse assessed as abnormalities in lung at 500 mg/kg, po administered […] 14 days by HE staining based assay. As to conditions: in vivo, 336 h, time 14 day. In kind it is organism-based.
For data set [18], the system named is SH-SY5Y. Nature of the data set: Neuroprotection against Abeta-induced oxidative stress in human SH-SY5Y cells assessed as cell protection at 10 uM incubated for 2 hr before Abeta(1-42) challenge and measured after 24 hrs by MTT assay. Type of data set: functional. As to conditions: time 26 hrs.
For data set [19], the system named is SH-SY5Y. Nature of the data set: Neuroprotection against 6-OHDA-induced cytotoxicity in human SH-SY5Y cells assessed as increase in cell viability at 100 uM incubated for 2 hr before 6-OHDA challenge and measured after 24 hrs by MTT assay. Type of data set: functional, cell-based. As to conditions: time 26.0 hrs.
Data set [20] has as its system SH-SY5Y. Nature of the data set: Neuroprotection against H202-induced cytotoxicity in human SH-SY5Y cells assessed as increase in cell viability at 100 uM incubated for 2 hr before H202 challenge and measured after 24 hrs by MTT assay. In kind it is functional, cell-based. The note with it: time 26.0 hrs.
Data set [21] has as its system SH-SY5Y. Nature of the data set: Neuroprotection against H202-induced cytotoxicity in human SH-SY5Y cells assessed as increase in cell viability upto 50 uM incubated for 2 hr before H202 challenge and measured after 24 hrs by MTT assay. Type of data set: functional, cell-based. As to conditions: dose microM <=50, time 2.0 hrs.
Data set [22] relates to SH-SY5Y. Nature of the data set: Neuroprotection against Abeta-induced cytotoxicity in human SH-SY5Y cells assessed as increase in cell viability at 100 uM incubated for 2 hr before Abeta(1-42) challenge and measured after 24 hrs by MTT assay. Type of data set: functional, cell-based.
Data set [23] in a line: Acute toxicity in ICR mouse assessed as abnormalities in spleen at 500 mg/kg, po administered […] 14 days by HE staining based assay. In kind it is organism-based. As to conditions: in vivo, 336 h, time 14 day.
The subject of data set [24] is SH-SY5Y. Nature of the data set: Neuroprotection against Abeta-induced oxidative stress in human SH-SY5Y cells assessed as cell protection at 1 mM incubated for 2 hr before Abeta(1-42) challenge and measured after 24 hrs by MTT assay. In kind it is functional. The note with it: time 26 hrs.
Data set [25] concerns SH-SY5Y. Nature of the data set: Neuroprotection against 6-OHDA-induced oxidative stress in human SH-SY5Y cells assessed as cell protection at 1 mM preincubated for 2 hr before 6-OHDA challenge and measured after 24 hrs by MTT assay. Type of data set: functional. The note with it: time 26 hrs.
In data set [26] the test system is SH-SY5Y. Nature of the data set: Neuroprotection against H202-induced oxidative stress in human SH-SY5Y cells assessed as cell protection at 1 mM preincubated for 2 hr before H202 challenge and measured after 24 hrs by MTT assay. In kind it is functional. The note with it: time 26 hrs.

On to `COc1ccc2[nH]cc(CCNC(=O)Oc3ccc4c(c3)CC[C@@H]3[C@@H]4CC[C@]4(C)[C@@H]5[C@H](C[C@@H]34)O[C@]3(CC[C@@H](C)CO3)[C@H]5C)c2c1`, for which the result in the data set with SH-SY5Y [1], with SH-SY5Y [19], in the data set with SH-SY5Y [20] and in the data set on SH-SY5Y [22] was inactive. The outcome in the data set with Mus musculus [2], in the data set on SH-SY5Y [3], in the data set on Mus musculus [4], with SH-SY5Y [6], with Mus musculus [10] and in the data set with SH-SY5Y [15] was Active. Moreover, the outcome in the data set with SH-SY5Y [21] was Active. Moreover, the Activity is 38.4% in the data set on SH-SY5Y [5]; “Non-Toxic” in data set [7]; “Non-Toxic” in [8]; “Non-Toxic” in data set [9]; 52.9% with SH-SY5Y [11]; “Non-Toxic” in data set [12]. The Activity result is given as “Non-Toxic” in [13]; “Non-Toxic” in data set [14]; “Non-Toxic” with SH-SY5Y [16]; “Non-Toxic” in data set [17]; 54.4% with SH-SY5Y [18]; “Non-Toxic” in data set [23].

For `CC(=O)N[C@@H](CS)C(=O)O` [ACETYLCYSTEINE], the values for the Activity in the data set on SH-SY5Y [24], in the data set with SH-SY5Y [25] and in the data set on SH-SY5Y [26] were 67.6%, 83.59% and 84.73%, respectively.
